Where two headings read alike, the source gives them in different places.
Key:
[1] = tested on: breast (MCF-7) and colon (LS-174T) cancer cell lines; assay: Growth inhibition of breast and colon cancer cells (Table 1); format: cell-based, human; conditions: for inhibition at 50 µM: Homo sapiens
Protocol: The compounds of the present invention were added using 100X concentrated stock solutions. At desired times, cell counts in duplicate were performed on a Coulter counter after harvesting the cells with gentle trypsinization. […] Cell counts were performed on each of three or more separate experiments, and the average values are expressed as percent growth inhibition as compared with untreated control cells. | ^a The values of percentage growth inhibition were determined from th | doseresponse curve experiments. Each value represents an average value an | range (in parentheses) obtained from three or more separate experiments. | The cell counts in duplicate were performed at day 3 and day 4 after two | treatments (day 0 and day 2) with analogs (seeding on day -1).

[2] = tested on: HL-60; assay: Growth inhibition of leukemic cells (Table 12); format: cell-based; conditions: Homo sapiens
[3] = tested on: Molt-4; assay: Growth inhibition of leukemic cells (Table 12); format: cell-based, human; conditions: Homo sapiens, MOLT-4; read-out: Inhibition of Growth IC50, Molt-4
[4] = tested on: K-562; assay: Growth inhibition of leukemic cells (Table 12); format: cell-based; conditions: Homo sapiens, K562
[5] = tested on: myc-K562; assay: Growth inhibition of leukemic cells (Table 12); format: cell-based; conditions: Homo sapiens
[6] = tested on: HL-60 human leukemia cells; assay: Growth inhibition of HL-60 leukemia cells (Example 3, Table 16); format: cell-based
Protocol: HL-60 leukemic cells were obtained from the American Type Culture Collection (Rockville, Md.) and were grown in suspension culture in RPMI 1640 supplemented with 10% heat-inactivated fetal bovine serum, streptomycin (500 μg/ml), penicillin (50 units/ml), and glutamine (1 mM) (Gibco, Grand Island, N.Y.).
Cell counts were performed at desired times on a Coulter Counter.
The IC50 values were determined from the dose-
represent an average value obtained for each analogue
from two or more separate experiments carried out from 3
days or 6 days. Initial cell number, 1 × 10^5 /dish.
Typical numbers of untreated control cells at day 3 and
viability in treated and control cells.

[7] = tested on: four leukemic cell lines (HL-60, K-562, myc-K562, Molt-4); assay: Growth inhibition of leukemic cell lines; format: cell-based, human
[8] = target: T1, RI, regulatory subunit of cAMP-dependent protein kinase type I (Oryctolagus cuniculus, UniProt G1TDN4); conditions: literature, cited from earlier work; for relative affinity Ki (cAMP)/Ki (analogue), RI Site A: Site A (Site 2); for relative affinity Ki (cAMP)/Ki (analogue), RI Site B: Site B (Site 1)
T1 construct: from tissue

[9] = target: T2, RII, regulatory subunit of cAMP-dependent protein kinase type II (Bos taurus, UniProt P00515); conditions: literature, cited from earlier work; for relative affinity Ki (cAMP)/Ki (analogue), RII Site A: Site A (Site 2); for relative affinity Ki (cAMP)/Ki (analogue), RII Site B: Site B (Site 1)
T2 construct: from tissue

[10] = tested on: LS-174T human colon carcinoma cells; assay: Growth inhibition of LS-174T cells (Example 4, Table 18); format: cell-based; conditions: for inhibition at 10 µM / inhibition at 50 µM: Homo sapiens, LS174T; for growth inhibitory potency: LS-174T
Protocol: LS-174T human colon carcinoma cells were obtained from the National Cancer Institute, Division of Cancer Treatment, Bethesda, Md., and were grown in Eagle's minimum essential medium supplemented with 10% heat-inactivated fetal bovine serum, Eagle's minimum essential medium nonessential amino acids, 20 mM 4-(2-hydroxyethyl)-1-piperazineethanesulfonic acid, 2mM glutamine, and penicillin-streptomycin (Gibco). The medium was changed every 48 hours.
LS-174T cells were seeded at a density of 2×10^5 / 60 mm dish. […] At desired times, cell counts were performed in duplicate on a Coulter Counter after harvesting cells with gentle trypsinization.
The percentage growth inhibition values shown at 10
and 50 μM analogue concentrations were determined from
the dose-response curve experiments like those shown in
FIG. 1 and represent an average value obtained for each
analogue from two or more separate experiments. Sp-6-SET-

[11] = tested on: LS-174T human colon carcinoma cells; assay: Additive growth inhibition with 8-Cl-cAMP (Table 19); format: cell-based
Protocol: The medium was changed every 48 hours.
At desired times, cell counts were performed in duplicate on a Coulter Counter after harvesting cells with gentle trypsinization.
The analogues were added at 24

[12] = target: T1, RI, regulatory subunit of cAMP-dependent protein kinase type I; assay: Binding affinity for RI (Table 14); conditions: vs cyclophosphate
Protocol: (§1) RI and RII are the regulatory subunits of cAMP-dependent protein
(§2) kinase type I and type II, respectively. Site A (Site 2) and Site B
(§3) (RI and RII): the affinities of analogues for Site A and Site B were
(§4) determined by the measurement of kinetic constants (inhibition constant,
(§5) Ki), and the values are expressed as the relative affinity Ki
(§6) (analogue), i.e., the ratio between the apparent inhibition constant for
(§7) cAMP and the analogue, as described in Ogreid et al., Eur. J. Biochem.

[13] = target: T2, RII, regulatory subunit of cAMP-dependent protein kinase type II; assay: Binding affinity for RII (Table 14); conditions: vs cyclophosphate
Protocol: as §1, §2, §3, §4, §5, §6, §7

[14] = tested on: breast and colon cancer lines (MCF-7, T-47D, ZR-75-1, MCF-7ras, MDA-MB-231, BT-20, HBL-100, LS-174T, WiDr, HT-29); assay: Growth inhibition of breast and colon cancer lines (FIG. 1); format: cell-based, human; conditions: 0.1 mM, alone
[15] = 72 h, 50 μM, day 3, average (range), read-out: % Growth Inhibition, Day 3
[16] = 96 h, 50 μM, day 4, average (range), read-out: % Growth Inhibition, Day 4
[17] = 50 micromolar, read-out: growth inhibition
[18] = Homo sapiens, HL-60, read-out: growth inhibition

T2 sequence (P00515 whole entry): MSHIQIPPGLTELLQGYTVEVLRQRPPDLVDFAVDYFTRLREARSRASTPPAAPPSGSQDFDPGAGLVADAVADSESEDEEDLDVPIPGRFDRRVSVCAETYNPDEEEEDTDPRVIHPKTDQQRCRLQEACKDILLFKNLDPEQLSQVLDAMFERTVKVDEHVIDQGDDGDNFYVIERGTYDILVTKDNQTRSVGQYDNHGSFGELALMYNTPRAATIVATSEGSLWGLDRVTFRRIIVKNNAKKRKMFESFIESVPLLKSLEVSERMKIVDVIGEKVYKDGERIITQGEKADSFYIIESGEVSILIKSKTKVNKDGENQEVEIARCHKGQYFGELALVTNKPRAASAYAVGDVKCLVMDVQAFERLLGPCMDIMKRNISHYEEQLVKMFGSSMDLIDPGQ
T1 sequence (G1TDN4 1-381): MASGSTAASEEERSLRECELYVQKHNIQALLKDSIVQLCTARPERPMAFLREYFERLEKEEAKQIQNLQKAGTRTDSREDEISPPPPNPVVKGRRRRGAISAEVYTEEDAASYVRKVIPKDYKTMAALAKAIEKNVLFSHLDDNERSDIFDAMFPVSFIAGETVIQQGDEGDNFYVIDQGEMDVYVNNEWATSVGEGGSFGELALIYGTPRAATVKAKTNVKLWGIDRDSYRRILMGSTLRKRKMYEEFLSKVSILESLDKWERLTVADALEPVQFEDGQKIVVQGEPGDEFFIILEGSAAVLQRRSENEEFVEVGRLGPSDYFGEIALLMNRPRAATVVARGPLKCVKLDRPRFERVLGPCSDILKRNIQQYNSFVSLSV

Compound: O=P1(O)OC[C@H]2O[C@@H](n3c(Sc4ccc(Cl)cc4)nc4c(N5CCCCC5)ncnc43)[C@H](O)[C@@H]2O1 [6-piperidino-8-p-chlorophenylthio-cAMP]
- inhibition at 50 µM [1, 15]: 33%
- inhibition at 50 µM [1, 16]: 25%

Compound: Nc1ncnc2c1nc(Br)n2[C@@H]1O[C@@H]2COP(=O)(O)O[C@H]2[C@H]1O [8-Br-cAMP, 8-bromo-adenosine 3': 5'-monophosphate]
- inhibition at 50 µM [1, 15]: 41%
- inhibition at 50 µM [1, 16]: 40%
- inhibition at 50 µM [1, 17]: 40 to 75%
- IC50 [2]: 50 µM
- IC50 [3]: 100 µM
- IC50 [4]: 100 µM
- IC50 [5]: 100 µM
- IC50 ([6]; Homo sapiens, HL-60, 72 h; read-out: Growth inhibition (IC50), Day 3): 100 µM
- IC50 ([6]; Homo sapiens, HL-60, 144 h; read-out: Growth inhibition (IC50), Day 6): 18 µM
- inhibition at 20 µM ([6]; Homo sapiens, HL-60; 20 μM; read-out: growth inhibition): < 5%
- times less potent than 8-Cl-cAMP ([7]; leukemic cell lines): 5-20 times
- relative affinity Ki (cAMP)/Ki (analogue), RI Site A [8]: 1.30
- relative affinity Ki (cAMP)/Ki (analogue), RI Site B [8]: 1.0
- relative affinity Ki (cAMP)/Ki (analogue), RII Site A [9]: 0.11
- relative affinity Ki (cAMP)/Ki (analogue), RII Site B [9]: 6.8

Compound: CN(C)c1nc2c(N)ncnc2n1[C@@H]1O[C@@H]2COP(=O)(O)O[C@H]2[C@H]1O [8-N,N-dimethylamino-cAMP]
- inhibition at 50 µM [1, 15]: 0%
- inhibition at 50 µM [1, 16]: 0%
- inhibition at 50 µM [1, 17]: ≤ 20%

Compound: Nc1ncnc2c1nc(I)n2[C@@H]1O[C@@H]2COP(=O)(O)O[C@H]2[C@H]1O [8-iodo-cAMP]
- inhibition at 50 µM [1, 15]: 26%
- inhibition at 50 µM [1, 16]: 25%

Compound: Nc1ncnc2c1nc(Sc1ccc(Cl)cc1)n2[C@@H]1O[C@@H]2COP(=O)(O)O[C@H]2[C@H]1O [8-p-chlorophenylthio-cAMP]
- inhibition at 50 µM [1, 15]: 23%
- inhibition at 50 µM [1, 16]: 24%

Compound: Nc1ncnc2c1nc(NCCO)n2[C@@H]1O[C@@H]2COP(=O)(O)O[C@H]2[C@H]1O [8-β-hydroxyethylamino-cAMP]
- inhibition at 50 µM [1, 15]: 15%
- inhibition at 50 µM [1, 16]: 20%
- inhibition at 50 µM [1, 17]: ≤ 20%

Compound: CCOC(=O)Nc1ncnc2c1ncn2[C@@H]1O[C@@H]2COP(=O)(O)O[C@H]2[C@H]1O [N^6 -ethoxycarbonyl-cAMP]
- inhibition at 50 µM [1, 15]: 32%
- inhibition at 50 µM [1, 16]: 40%
- inhibition at 50 µM [1, 17]: 30 to 70%

Compound: O=C(Nc1ccccc1)Nc1ncnc2c1ncn2[C@@H]1O[C@@H]2COP(=O)(O)O[C@H]2[C@H]1O [N^6 -phenylcarbamoyl-cAMP]
- inhibition at 50 µM [1, 15]: 10%
- inhibition at 50 µM [1, 16]: 10%

Compound: CCN(CC)c1ncnc2c1nc(Sc1ccc(Cl)cc1)n2[C@@H]1O[C@@H]2COP(=O)(O)O[C@H]2[C@H]1O [N^6,N ^6-diethyl-8-p-chlorophenylthio-cAMP]
- inhibition at 50 µM [1, 15]: 43%
- inhibition at 50 µM [1, 16]: 45%

Compound: O=P1(O)OC[C@H]2O[C@@H](n3c(SCc4ccccc4)nc4c(NCc5ccccc5)ncnc43)[C@H](O)[C@@H]2O1 [N^6-benzyl-8-benzylthio-cAMP]
- inhibition at 50 µM [1, 15]: 25%
- inhibition at 50 µM [1, 16]: 23%

Compound: CCCCNc1ncnc2c1nc(Sc1ccc(Cl)cc1)n2[C@@H]1O[C@@H]2COP(=O)(O)O[C@H]2[C@H]1O [N^6-n-butyl-8-p-chlorophenylthio-cAMP]
- inhibition at 50 µM [1, 15]: 15%
- inhibition at 50 µM [1, 16]: 22%

Compound: O=P1(O)OC[C@H]2O[C@@H](n3c(Sc4ccc(Cl)cc4)nc4c(Nc5ccccc5)ncnc43)[C@H](O)[C@@H]2O1 [N^6-phenyl-8-p-chlorophenylthio-cAMP]
- growth inhibition ([1]; 50 micromolar): most potent growth inhibition among the C-6,-8 disubstituted analogues
- inhibition at 50 µM [1, 15]: 60%
- inhibition at 50 µM [1, 16]: 47%

Compound: Nc1ncnc2c1ncn2[C@@H]1O[C@@H]2CO[P@@](O)(=S)O[C@H]2[C@H]1O [Rp-cAMPS]
- inhibition at 20 µM [6, 18]: < 5%
- inhibition at 10 µM [10]: 15%
- inhibition at 50 µM [10]: 35%
- growth inhibitory potency [10]: moderate potency
- inhibition at 50 µM ([11]; Homo sapiens, LS174T, 96 h, 50 μM, 4 days): 35%
- effect on growth-inhibitory effect of 8-Cl-cAMP ([11]; with 8-Cl-cAMP): additive effect

Compound: Nc1nc(Cl)nc2c1ncn2[C@@H]1O[C@@H]2CO[P@](O)(=S)O[C@H]2[C@H]1O [Sp-2-Cl-cAMPS, Sp-2-Chloroadenosine-3':5'-monophosphorothioate]
- inhibition at 10 µM [10]: 10%
- inhibition at 50 µM [10]: 25%
- growth inhibitory potency [10]: least potency

Compound: CCSc1ncnc2c1ncn2[C@@H]1O[C@@H]2CO[P@](O)(=S)O[C@H]2[C@H]1O [Sp-6-SET-cPMPS, Sp-6-ethylthiopurine-3':5'-monophosphorothioate]
- inhibition at 10 µM [10]: 25%
- inhibition at 50 µM [10]: 50%
- growth inhibitory potency [10]: moderate potency

Compound: Nc1ncnc2c1nc(Br)n2[C@@H]1O[C@@H]2CO[P@](O)(=S)O[C@H]2[C@H]1O [Sp-8-Br-cAMPS]
- decrease in affinity for Site A of RI vs corresponding cyclophosphate [12]: 7 fold
- decrease in affinity for Site B of RI vs corresponding cyclophosphate [12]: 19 fold
- decrease in affinity for Site A of RII vs corresponding cyclophosphate [13]: 37 fold
- decrease in affinity for Site B of RII vs corresponding cyclophosphate [13]: 3.1 fold
- IC50 ([6]; Homo sapiens, HL-60, 72 h, read-out: Growth inhibition (IC50), Day 3): 28 µM
- IC50 ([6]; Homo sapiens, HL-60, 144 h, read-out: Growth inhibition (IC50), Day 6): 3 µM
- inhibition at 20 µM [6, 18]: 47%
- fold more potent than 8-Br-cAMP ([6]; IC50, day 6): 6 fold
- inhibition at 10 µM [10]: 40%
- inhibition at 50 µM [10]: 60%
- growth inhibitory potency [10]: greatest inhibition of cell growth
- relative affinity Ki (cAMP)/Ki (analogue), RI Site A [8]: 0.19
- relative affinity Ki (cAMP)/Ki (analogue), RI Site B [8]: 0.054
- relative affinity Ki (cAMP)/Ki (analogue), RII Site A [9]: 0.003
- relative affinity Ki (cAMP)/Ki (analogue), RII Site B [9]: 2.2

Compound: Nc1ncnc2c1ncn2[C@@H]1O[C@@H]2CO[P@](O)(=S)O[C@H]2[C@H]1O [Sp-cAMPS]
- inhibition at 20 µM [6, 18]: < 5%
- inhibition at 10 µM [10]: 7%
- inhibition at 50 µM [10]: 15%
- growth inhibitory potency [10]: least potency

Compound: Cn1c(=O)c2[nH]cnc2n(C)c1=O [theophylline, reference compound]
- growth inhibitory effect [14]: little or no growth inhibitory effect
- growth inhibitory effect ([7]; 0.1 mM, alone): little or no growth inhibitory effect
